# pIC50: −log10 of the molar value.
# Columns and labels:
# [1] = system: Akt serine-473 phosphorylation in HEK293T/17 cells; experiment: In vitro phospho-Akt cellular assay (pAkt S473); format: cell-based; conditions: Homo sapiens, Table 6, 2 hours, Akt Ser473, read-out: pAKT (Phospho-Akt cell assay data, activity level)
# Text: In Vitro Phospho-S6 and Phospho-Akt Cellular Assay
# Activation of mTOR signaling results in phosphorylation of several downstream targets. In cells, mTOR exists in two different protein complexes. The mTOR Complex-1 (mTORC1) phosphorylates and activates S6 Kinase 1 (S6K1) and S6 Kinase 2 (S6K2) (also known as p70S6K) which then phosphorylate S6 Ribosomal Protein (S6RP) (also known as RPS6). S6RP is phosphorylated on serine 235, serine 236, serine 240 and serine 244 by both pS6K1 and pS6K2. The mTOR Complex-2 (mTORC2) phosphorylates AKT on serine 473 which activates the AKT signaling pathway.
# The assay measures a test compound's inhibition of S6RP serine-240/244 phosphorylation and inhibition of Akt serine-473 phosphorylation in human embryonic kidney derived HEK293T/17 cells (ATCC CRL-11268).
# The HEK293T/17 cell line is maintained in DMEM media (Invitrogen catalogue number 41965-039) supplemented with 10% FCS at 37° C. in a 5% CO2 humidified incubator.
# Cells are seeded in 96-well plates at 40,000 cells/well (pS6RP S240/244 assay) or 80,000 cells/well (pAkt 5473 assay) in 90 μl growth media (DMEM, 2% FCS). Plates are incubated for 1 hour in a humidified incubator to allow the cells to adhere. Cells are treated with 8 concentrations of test compounds or DMSO alone for controls (final DMSO concentration 0.1%) and incubated at 37° C. for 2 hours. Then 20 μl of 5× concentrated lysis buffer (750 mM NaCl, 100 mM Tris pH7.4, 5 mM EDTA, 5 mM EGTA, 5% Triton X-100) is added, plates are sealed and incubated for 15 minutes at 4° C. with gentle shaking. After cell lysis, 25 μl cell lysate is transferred to a MesoScale plate coated with an antibody to pS6RP Ser240/244 (MesoScale Discovery K150DGD-3) or an antibody to pAkt Ser 473 (MesoScale Discovery K151DGD-3). Plates have been blocked before by incubation with 150 μl MesoScale Discovery Blocking Solution-A for 1 hour at room temperature followed by washing with 150 μl 1× Tris wash buffer per well. After the transfer of the cell lysate to the MSD plate, the pS6RP (or pAkt) protein is captured on the coated antibody by incubation at room temperature for 1 hour with gentle shaking. After the capture step the plate is washed three times with 150 μl of 1× Tris wash buffer per well. Then 25 μl detection antibody conjugated with a Sulfo-Tag is added and incubated for 1 hour at room temperature with gentle shaking. Subsequently the antibody solution is removed and the plate is washed 3 times with 150 μl 1× Tris wash buffer per well and 150 μl Read buffer is added. The plates are analysed on a MSD 2400 Plate Reader (MesoScale Discovery). Data analysis is performed using nonlinear regression for a sigmoidal dose-response with a variable slope.
# kinases (kinome) [2] = molecular target: T1, kinases (kinome) (Homo sapiens, UniProt P12931); experiment: kinobeads assay with mass spectrometry detection of kinases (kinase selectivity profile); format: binding; conditions: SRC (TK), IPI00328867
# T1 construct: determined in kinobeads assays with mass spectrometry detection of kinases as described previously; endogenous in cells; host or cells: cell lysate
# Text: (§1) The protein kinase complement of the human genome (the kinome) was described previously (Manning et al., 2002. Science 298(5600):1912-1934). Sequence accession numbers are defined by the International Protein Index (IPI) (Kersey et al., 2004. Proteomics 4(7):1985-1988).
# kinases (kinome) [3] = molecular target: T2, kinases (kinome) (Homo sapiens, UniProt P25440); experiment: as above; format: binding; conditions: BRD2 (Atypical), IPI00440502
# T2 construct: determined in kinobeads assays with mass spectrometry detection of kinases as described previously; endogenous in cells; host or cells: cell lysate
# Text: as §1
# kinases (kinome) [4] = molecular target: T3, kinases (kinome) (Homo sapiens, UniProt P50750); experiment: as above; format: binding; conditions: CDK9 (CMGC), IPI00552413
# T3 construct: determined in kinobeads assays with mass spectrometry detection of kinases as described previously; endogenous in cells; host or cells: cell lysate
# Text: as §1
# kinases (kinome) [5] = molecular target: T4, kinases (kinome) (Homo sapiens, UniProt P53667); experiment: as above; format: binding; conditions: LIMK1 (TKL), IPI00291702
# T4 construct: determined in kinobeads assays with mass spectrometry detection of kinases as described previously; endogenous in cells; host or cells: cell lysate
# Text: as §1
# kinases (kinome) [6] = molecular target: T5, kinases (kinome) (Homo sapiens, UniProt Q13555); experiment: as above; format: binding; conditions: CaMK2g (CAMK), IPI00908444
# T5 construct: determined in kinobeads assays with mass spectrometry detection of kinases as described previously; endogenous in cells; host or cells: cell lysate
# Text: as §1
# kinases (kinome) [7] = molecular target: T6, kinases (kinome) (Homo sapiens, UniProt Q14680); experiment: as above; format: binding; conditions: MELK (CAMK), IPI00006471
# T6 construct: determined in kinobeads assays with mass spectrometry detection of kinases as described previously; endogenous in cells; host or cells: cell lysate
# Text: as §1
# kinases (kinome) [8] = molecular target: T7, kinases (kinome) (Homo sapiens, UniProt Q8TD19); experiment: as above; format: binding; conditions: NEK9 (Other), IPI00301609
# T7 construct: determined in kinobeads assays with mass spectrometry detection of kinases as described previously; endogenous in cells; host or cells: cell lysate
# T7 sequence (Q8TD19 1-979): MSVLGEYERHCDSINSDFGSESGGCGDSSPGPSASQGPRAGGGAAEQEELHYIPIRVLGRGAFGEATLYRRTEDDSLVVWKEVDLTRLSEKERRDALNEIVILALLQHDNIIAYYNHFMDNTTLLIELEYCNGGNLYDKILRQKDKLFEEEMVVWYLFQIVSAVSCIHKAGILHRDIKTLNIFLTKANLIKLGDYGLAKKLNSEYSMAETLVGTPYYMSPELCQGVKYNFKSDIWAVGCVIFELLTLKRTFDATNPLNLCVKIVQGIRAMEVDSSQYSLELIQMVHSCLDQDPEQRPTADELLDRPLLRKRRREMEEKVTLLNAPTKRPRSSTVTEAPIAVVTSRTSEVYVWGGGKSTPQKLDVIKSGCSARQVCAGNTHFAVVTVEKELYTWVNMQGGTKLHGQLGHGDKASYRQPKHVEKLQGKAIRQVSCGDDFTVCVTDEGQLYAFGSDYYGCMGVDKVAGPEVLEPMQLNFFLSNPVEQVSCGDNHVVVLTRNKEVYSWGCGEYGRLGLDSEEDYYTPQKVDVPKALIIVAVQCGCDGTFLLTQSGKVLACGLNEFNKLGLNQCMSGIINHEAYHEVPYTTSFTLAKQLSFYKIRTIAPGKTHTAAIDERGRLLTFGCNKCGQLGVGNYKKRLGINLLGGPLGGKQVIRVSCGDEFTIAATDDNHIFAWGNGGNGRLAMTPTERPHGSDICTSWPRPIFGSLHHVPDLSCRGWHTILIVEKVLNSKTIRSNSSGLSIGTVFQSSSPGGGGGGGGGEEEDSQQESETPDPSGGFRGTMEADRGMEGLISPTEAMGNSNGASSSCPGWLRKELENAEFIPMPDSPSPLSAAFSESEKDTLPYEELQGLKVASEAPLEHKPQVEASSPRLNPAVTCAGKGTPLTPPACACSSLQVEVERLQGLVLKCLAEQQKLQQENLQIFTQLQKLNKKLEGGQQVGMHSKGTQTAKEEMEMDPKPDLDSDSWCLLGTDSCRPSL
# Text: as §1
# T6 sequence (Q14680 whole entry): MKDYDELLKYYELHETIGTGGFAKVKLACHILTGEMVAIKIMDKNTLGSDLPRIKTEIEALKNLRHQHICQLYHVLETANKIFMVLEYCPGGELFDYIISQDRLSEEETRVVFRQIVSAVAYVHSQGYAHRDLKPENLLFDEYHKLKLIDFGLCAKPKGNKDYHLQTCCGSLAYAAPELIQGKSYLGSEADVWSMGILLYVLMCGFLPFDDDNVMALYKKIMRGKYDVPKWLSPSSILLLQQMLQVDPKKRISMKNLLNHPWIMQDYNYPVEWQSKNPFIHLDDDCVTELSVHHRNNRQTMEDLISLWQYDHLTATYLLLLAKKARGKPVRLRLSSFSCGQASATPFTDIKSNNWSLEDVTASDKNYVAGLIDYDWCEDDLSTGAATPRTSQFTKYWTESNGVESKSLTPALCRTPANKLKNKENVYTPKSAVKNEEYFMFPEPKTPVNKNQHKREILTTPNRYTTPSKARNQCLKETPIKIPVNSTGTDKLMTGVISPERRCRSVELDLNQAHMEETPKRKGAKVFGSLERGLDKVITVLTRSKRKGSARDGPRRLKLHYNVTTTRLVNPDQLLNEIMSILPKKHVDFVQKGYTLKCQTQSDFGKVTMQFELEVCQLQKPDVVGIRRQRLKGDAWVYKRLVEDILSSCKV
# T3 sequence (P50750 whole entry): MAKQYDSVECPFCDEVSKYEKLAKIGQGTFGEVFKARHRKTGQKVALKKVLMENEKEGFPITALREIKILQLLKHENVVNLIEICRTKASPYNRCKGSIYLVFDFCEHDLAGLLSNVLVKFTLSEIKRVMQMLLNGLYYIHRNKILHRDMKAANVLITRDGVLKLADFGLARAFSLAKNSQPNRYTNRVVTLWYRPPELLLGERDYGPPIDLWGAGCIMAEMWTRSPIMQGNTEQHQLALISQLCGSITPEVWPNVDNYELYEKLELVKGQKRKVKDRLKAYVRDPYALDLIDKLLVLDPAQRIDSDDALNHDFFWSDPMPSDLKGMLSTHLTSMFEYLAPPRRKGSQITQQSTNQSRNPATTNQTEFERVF
# T2 sequence (P25440 whole entry): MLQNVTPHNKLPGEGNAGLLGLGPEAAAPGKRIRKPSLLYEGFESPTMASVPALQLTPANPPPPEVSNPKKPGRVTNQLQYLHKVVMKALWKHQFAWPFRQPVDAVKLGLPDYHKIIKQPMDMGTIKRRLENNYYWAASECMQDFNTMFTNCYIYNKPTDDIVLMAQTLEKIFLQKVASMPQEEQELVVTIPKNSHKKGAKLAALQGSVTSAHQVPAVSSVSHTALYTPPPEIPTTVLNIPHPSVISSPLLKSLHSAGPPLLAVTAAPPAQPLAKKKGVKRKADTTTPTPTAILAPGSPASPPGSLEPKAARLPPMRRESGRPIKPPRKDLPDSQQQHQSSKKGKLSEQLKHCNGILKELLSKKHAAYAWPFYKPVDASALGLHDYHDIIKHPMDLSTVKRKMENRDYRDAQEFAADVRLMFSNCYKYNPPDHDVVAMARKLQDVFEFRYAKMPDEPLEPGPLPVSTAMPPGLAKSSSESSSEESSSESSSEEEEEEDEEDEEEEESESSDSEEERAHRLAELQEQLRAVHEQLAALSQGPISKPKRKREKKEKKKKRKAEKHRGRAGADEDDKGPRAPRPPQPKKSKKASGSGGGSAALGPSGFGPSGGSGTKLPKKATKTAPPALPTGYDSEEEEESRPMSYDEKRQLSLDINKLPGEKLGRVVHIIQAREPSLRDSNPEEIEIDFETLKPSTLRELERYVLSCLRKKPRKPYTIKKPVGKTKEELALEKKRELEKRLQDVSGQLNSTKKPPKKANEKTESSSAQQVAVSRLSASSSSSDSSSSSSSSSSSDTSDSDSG
# T5 sequence (Q13555 whole entry): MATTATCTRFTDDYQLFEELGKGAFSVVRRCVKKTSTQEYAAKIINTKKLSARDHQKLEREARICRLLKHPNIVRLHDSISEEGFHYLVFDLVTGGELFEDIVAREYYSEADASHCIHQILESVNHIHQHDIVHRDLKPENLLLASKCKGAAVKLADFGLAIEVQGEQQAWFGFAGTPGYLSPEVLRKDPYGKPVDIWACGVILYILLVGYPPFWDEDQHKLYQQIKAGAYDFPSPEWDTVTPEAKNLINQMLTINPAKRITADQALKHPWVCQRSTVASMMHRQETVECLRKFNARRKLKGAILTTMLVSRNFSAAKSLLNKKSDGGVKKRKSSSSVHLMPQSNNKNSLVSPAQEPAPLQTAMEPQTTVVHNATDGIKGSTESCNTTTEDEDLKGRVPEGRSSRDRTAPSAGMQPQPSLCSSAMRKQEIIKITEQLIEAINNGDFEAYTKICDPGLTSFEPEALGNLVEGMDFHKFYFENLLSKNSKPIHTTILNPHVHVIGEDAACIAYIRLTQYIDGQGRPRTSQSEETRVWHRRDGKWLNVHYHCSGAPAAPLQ
# T1 sequence (P12931 whole entry): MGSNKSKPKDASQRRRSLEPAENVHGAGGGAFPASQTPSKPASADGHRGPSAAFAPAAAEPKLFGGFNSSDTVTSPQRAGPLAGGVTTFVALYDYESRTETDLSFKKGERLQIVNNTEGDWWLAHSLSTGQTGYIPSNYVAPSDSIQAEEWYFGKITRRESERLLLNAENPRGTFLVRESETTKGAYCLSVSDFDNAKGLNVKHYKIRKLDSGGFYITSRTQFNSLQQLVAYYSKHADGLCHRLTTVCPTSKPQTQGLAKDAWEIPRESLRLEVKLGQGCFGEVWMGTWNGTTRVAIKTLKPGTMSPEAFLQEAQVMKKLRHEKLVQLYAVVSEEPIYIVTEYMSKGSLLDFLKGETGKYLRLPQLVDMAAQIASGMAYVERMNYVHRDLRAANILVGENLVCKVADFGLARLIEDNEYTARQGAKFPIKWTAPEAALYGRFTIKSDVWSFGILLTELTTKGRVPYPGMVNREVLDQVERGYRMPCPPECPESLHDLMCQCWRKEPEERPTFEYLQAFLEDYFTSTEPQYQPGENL
# T4 sequence (P53667 whole entry): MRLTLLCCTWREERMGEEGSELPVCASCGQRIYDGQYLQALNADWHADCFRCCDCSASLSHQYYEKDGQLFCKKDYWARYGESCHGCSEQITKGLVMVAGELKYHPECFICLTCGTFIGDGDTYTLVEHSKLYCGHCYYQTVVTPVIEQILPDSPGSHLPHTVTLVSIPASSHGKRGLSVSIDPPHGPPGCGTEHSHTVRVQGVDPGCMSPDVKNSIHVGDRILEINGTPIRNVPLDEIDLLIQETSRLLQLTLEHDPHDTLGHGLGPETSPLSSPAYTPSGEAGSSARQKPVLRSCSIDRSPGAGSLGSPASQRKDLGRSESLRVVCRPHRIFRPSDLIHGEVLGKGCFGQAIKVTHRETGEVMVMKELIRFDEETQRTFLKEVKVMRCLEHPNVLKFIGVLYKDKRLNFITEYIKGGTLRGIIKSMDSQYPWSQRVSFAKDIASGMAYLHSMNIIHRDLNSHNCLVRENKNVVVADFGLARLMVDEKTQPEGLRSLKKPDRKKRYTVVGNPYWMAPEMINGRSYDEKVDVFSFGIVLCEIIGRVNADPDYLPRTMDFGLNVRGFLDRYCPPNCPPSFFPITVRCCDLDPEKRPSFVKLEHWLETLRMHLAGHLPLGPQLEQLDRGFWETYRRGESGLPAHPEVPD
pIC50 (kinases (kinome) [2]),pIC50 (kinases (kinome) [3]),pIC50 (kinases (kinome) [4]),pIC50 (kinases (kinome) [5]),pIC50 (kinases (kinome) [6]),pIC50 (kinases (kinome) [7]),SMILES,pIC50 [1],pIC50 (kinases (kinome) [8])
,,,,,,"C[C@H]1COCCN1c1nc(-c2ccc(NC(=O)NCCCO)cc2)cc(-c2cc(F)ccc2S(C)(=O)=O)n1 [Example 64, (S)-1-(4-(6-(5-fluoro-2-(methylsulfonyl)phenyl)-2-(3-methylmorpholino)pyrimidin-4-yl)phenyl)-3-(3-hydroxypropyl)urea]",> 7.00,
< 5.00,< 5.00,< 5.00,< 5.00,< 5.00,< 5.00,"C[C@H]1COCCN1c1nc(-c2ccc(NC(=O)NC3CC3)cc2)cc(-c2cc(F)ccc2S(C)(=O)=O)n1 [Example 40, (S)-1-cyclopropyl-3-(4-(6-(5-fluoro-2-(methylsulfonyl)phenyl)-2-(3-methylmorpholino)pyrimidin-4-yl)phenyl)urea]",> 7.00,< 5.00
,,,,,,"O=C(Nc1ccncc1)Nc1ccc(-c2nccc(N3CC4CCC(C3)O4)n2)cc1 [Example 61, 1-(4-(4-(8-oxa-3-azabicyclo[3.2.1]octan-3-yl)pyrimidin-2-yl)phenyl)-3-(pyridin-4-yl)urea]",> 7.00,
,,,,,,"C[C@H]1COCCN1c1nc(-c2ccc(NC(=O)NCC(F)F)cc2)cc(-c2cc(F)ccc2S(C)(=O)=O)n1 [Example 47, (S)-1-(2,2-difluoroethyl)-3-(4-(6-(5-fluoro-2-(methylsulfonyl)phenyl)-2-(3-methylmorpholino)pyrimidin-4-yl)phenyl)urea]",> 7.00,
< 5.00,< 5.00,< 5.00,< 5.00,< 5.00,< 5.00,"C[C@H]1COCCN1c1cc(-c2ccccc2S(C)(=O)=O)nc(-c2ccc(NC(=O)NC3CC3)cc2)n1 [Example 6, (S)-1-cyclopropyl-3-(4-(4-(3-methylmorpholino)-6-(2-(methylsulfonyl)phenyl)pyrimidin-2-yl)phenyl)urea]",> 7.00,< 5.00
< 5.00,< 5.00,< 5.00,< 5.00,< 5.00,< 5.00,"CCNC(=O)Nc1ccc(-c2cc(-c3ccccc3C#N)nc(N3CCOC[C@@H]3C)n2)cc1 [Example 8, (S)-1-(4-(6-(2-cyanophenyl)-2-(3-methylmorpholino)pyrimidin-4-yl)phenyl)-3-ethylurea]",,< 5.00
< 5.00,< 5.00,< 5.00,< 5.00,< 5.00,< 5.00,"C[C@H]1COCCN1c1nc(-c2ccc(NC(=O)NC3CC3)cc2)cc(-c2cccnc2S(C)(=O)=O)n1 [Example 46, (S)-1-cyclopropyl-3-(4-(2-(3-methylmorpholino)-6-(2-(methylsulfonyl)pyridin-3-yl)pyrimidin-4-yl)phenyl)urea]",> 7.00,< 5.00
,,,,,,"C[C@H]1COCCN1c1ccnc(-c2ccc(NC(=O)Nc3ccncc3)cc2)n1 [Example 60, (S)-1-(4-(4-(3-methylmorpholino)pyrimidin-2-yl)phenyl)-3-(pyridin-4-yl)urea]",> 7.00,
,,,,,,"C[C@H]1COCCN1c1cc(-c2ccc(F)nc2)nc(-c2ccc(NC(=O)NC3CC3)cc2)n1 [Example 21, (S)-1-cyclopropyl-3-(4-(4-(6-fluoropyridin-3-yl)-6-(3-methylmorpholino)pyrimidin-2-yl)phenyl)urea]",6.00 to 7.00,
,,,,,,"C[C@H]1COCCN1c1cc(-c2cncc(F)c2)nc(-c2ccc(NC(=O)NC3CC3)cc2)n1 [Example 23, (S)-1-cyclopropyl-3-(4-(4-(5-fluoropyridin-3-yl)-6-(3-methylmorpholino)pyrimidin-2-yl)phenyl)urea]",> 7.00,
< 5.00,< 5.00,< 5.00,< 5.00,< 5.00,< 5.00,"C[C@H]1COCCN1c1nc(-c2ccc(NC(=O)NC3CC3)cc2)cc(-c2ccccc2S(C)(=O)=O)n1 [Example 4, (S)-1-cyclopropyl-3-(4-(2-(3-methylmorpholino)-6-(2-(methylsulfonyl)phenyl)pyrimidin-4-yl)phenyl)urea]",,< 5.00
,,,,,,"C[C@H]1COCCN1c1cc(-c2ccccn2)nc(-c2ccc(NC(=O)NC3CC3)cc2)n1 [Example 42, (S)-1-cyclopropyl-3-(4-(4-(3-methylmorpholino)-6-(pyridin-2-yl)pyrimidin-2-yl)phenyl)urea]",> 7.00,
,,,,,,"C[C@H]1COCCN1c1nc(-c2ccc(NC(=O)NCCO)cc2)cc(-c2cc(F)ccc2S(C)(=O)=O)n1 [Example 41, (S)-1-(4-(6-(5-fluoro-2-(methylsulfonyl)phenyl)-2-(3-methylmorpholino)pyrimidin-4-yl)phenyl)-3-(2-hydroxyethyl)urea]",> 7.00,
,,,,,,"CS(=O)(=O)c1ccc(F)cc1-c1cc(-c2ccc(NC(=O)NCCO)cc2)nc(N2CCOCC2)n1 [Example 62, 1-(4-(6-(5-fluoro-2-(methylsulfonyl)phenyl)-2-morpholinopyrimidin-4-yl)phenyl)-3-(2-hydroxyethyl)urea]",> 7.00,
,,,,,,"CCNC(=O)Nc1ccc(-c2cc(-c3cc(F)ccc3S(C)(=O)=O)nc(N3CCOC[C@@H]3C)n2)cc1 [Example 2, (S)-1-ethyl-3-(4-(6-(5-fluoro-2-(methylsulfonyl)phenyl)-2-(3-methylmorpholino)pyrimidin-4-yl)phenyl)urea]",> 7.00,
,,,,,,"C[C@H]1COCCN1c1nc(-c2ccc(NC(=O)NCCF)cc2)cc(-c2cc(F)ccc2S(C)(=O)=O)n1 [Example 44, (S)-1-(4-(6-(5-fluoro-2-(methylsulfonyl)phenyl)-2-(3-methylmorpholino)pyrimidin-4-yl)phenyl)-3-(2-fluoroethyl)urea]",> 7.00,

# Reference: patent US9249129B2, “Morpholino substituted urea derivatives as mTOR inhibitors” (CELLZOME LIMITED, priority 2010, dated 2016)
